Experiments:
[1] = Solubility of compound in acetonitrile/water; type: physicochemical
[2] = Stability of compound assessed as compound degradation under dark condition measured after 20 days by 1H-NMR analysis; type: physicochemical; details: time 20 day; read-out: Drug degradation

In the case of `C=CCCCCCCCCOC(=O)/C=C/c1cccc(C(C)(C)C)c1O`, the solubility [1] is reported as “Soluble” and the degraded at 480 h [2] is reported as 6%.
